Assay results taken from the supplement of paper PMC10307832.

Legend:
Assay in all cases: relative viability (nuclei count vs DMSO), 5 days (fraction); higher = more cells survive
[1] = compound: Cc1ccc(NC(=O)c2ccc(CN3CCN(C)CC3)cc2)cc1Nc1nccc(-c2cccnc2)n1 [Imatinib] + O=C(c1cc(Cc2n[nH]c(=O)c3ccccc23)ccc1F)N1CCN(C(=O)C2CC2)CC1 [Olaparib] (partner 8 µM)
Method in brief: (§1)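 Relative viability is defined as nuclei in treated wells over nuclei in vehicle wells. Duplicate plates were run and medians reported. Lung cancer cell lines in 1536-well plates were dosed by pin tool one day after seeding, with one drug or with a fixed anchor-drug dose plus five library-drug doses (not always all listed) in √10 steps, and nuclei were counted after 5 days.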

[2] = compound: Cc1ccc(NC(=O)c2ccc(CN3CCN(C)CC3)cc2)cc1Nc1nccc(-c2cccnc2)n1 [Imatinib] + Nc1ncn([C@H]2C[C@H](O)[C@@H](CO)O2)c(=O)n1 [Decitabine] (partner 2 µM)
Method in brief: as §1

[3] = compound: Cc1ccc(NC(=O)c2ccc(CN3CCN(C)CC3)cc2)cc1Nc1nccc(-c2cccnc2)n1 [Imatinib] + Cc1nc(Nc2ncc(C(=O)Nc3c(C)cccc3Cl)s2)cc(N2CCN(CCO)CC2)n1 [Dasatinib] (partner 0.075 µM)
Method in brief: as §1

[4] = compound: Cc1ccc(NC(=O)c2ccc(CN3CCN(C)CC3)cc2)cc1Nc1nccc(-c2cccnc2)n1 [Imatinib] + CCNC(=O)c1noc(-c2cc(C(C)C)c(O)cc2O)c1-c1ccc(CN2CCOCC2)cc1 [Luminespib] (partner 0.01 µM)
Method in brief: as §1

| Cell Line | relative viability ([1]; first compound 0.02 µM) | relative viability ([1]; first compound 0.06325 µM) | relative viability ([1]; first compound 0.2 µM) | relative viability ([1]; first compound 0.6325 µM) | relative viability ([1]; first compound 2 µM) | relative viability ([2]; first compound 0.02 µM) | relative viability ([2]; first compound 0.06325 µM) | relative viability ([2]; first compound 0.2 µM) | relative viability ([2]; first compound 0.6325 µM) | relative viability ([2]; first compound 2 µM) | relative viability ([3]; first compound 0.02 µM) | relative viability ([3]; first compound 0.06325 µM) | relative viability ([3]; first compound 0.2 µM) | relative viability ([3]; first compound 0.6325 µM) | relative viability ([3]; first compound 2 µM) | relative viability ([4]; first compound 0.02 µM) | relative viability ([4]; first compound 0.06325 µM) | relative viability ([4]; first compound 0.2 µM) | relative viability ([4]; first compound 0.6325 µM) | relative viability ([4]; first compound 2 µM) |
| --- | --- | --- | --- | --- | --- | --- | --- | --- | --- | --- | --- | --- | --- | --- | --- | --- | --- | --- | --- | --- |
| LU99A | 0.272 | 0.254 | 0.235 | 0.29 | 0.274 | 0.986 | 0.827 | 0.824 | 0.812 | 0.903 | 0.761 | 0.637 | 0.555 | 0.736 | 0.372 | 0.276 | 0.247 | 0.227 | 0.219 | 0.245 |
| NCI-H2087 | 0.63 |  | 0.619 | 0.595 |  | 0.291 |  | 0.251 | 0.283 |  | 0.817 |  | 0.949 | 0.89 |  | 0.205 |  | 0.155 | 0.159 | 0.25 |
